Results published in PubChem BioAssay AID328 (DTP/NCI, 2004).
“And” between values parts separate entries of the source, which are not always exact repeats. Equal values may be shown once. Toxic doses and inconclusive results are not listed.

System: BDF1 mice, P388 leukemia ip, median survival T/C
Experiment: NCI In Vivo Anticancer Drug Screen. Data for tumor model P388 Leukemia (intraperitoneal) in B6D2F1 (BDF1) mice
Settings: endpoint: median survival time, higher = longer survival
How it was run: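 Antitumour effect was judged in vivo: survival in drug-treated mice, normalised to that of vehicle-dosed controls, gives the reported T/C.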

[1] = dose: 100.0 mg/kg/injection, schedule: Q01DX001 (ip), vehicle: Klucel (hydroxypropylcellulose) (HPC)
[2] = dose: 200.0 mg/kg/injection, schedule: Q01DX001 (ip), vehicle: Klucel (hydroxypropylcellulose) (HPC)
[3] = dose: 400.0 mg/kg/injection, schedule: Q01DX001 (ip), vehicle: Klucel (hydroxypropylcellulose) (HPC)
[4] = dose: 100.0 mg/kg/injection, schedule: Q04DX003 (ip), vehicle: saline
[5] = dose: 200.0 mg/kg/injection, schedule: Q04DX003 (ip), vehicle: saline
[6] = dose: 100.0 mg/kg/injection, schedule: Q01DX009 (ip), vehicle: Klucel (hydroxypropylcellulose) (HPC)
[7] = dose: 150.0 mg/kg/injection, schedule: Q01DX009 (ip), vehicle: Klucel (hydroxypropylcellulose) (HPC)
[8] = dose: 100.0 mg/kg/injection, schedule: Q01DX009 (ip), vehicle: saline with Tween-80
[9] = dose: 100.0 mg/kg/injection, schedule: Q04DX003 (ip), vehicle: saline with Tween-80
[10] = dose: 200.0 mg/kg/injection, schedule: Q01DX009 (ip), vehicle: saline with Tween-80
[11] = dose: 200.0 mg/kg/injection, schedule: Q04DX003 (ip), vehicle: saline with Tween-80
[12] = dose: 400.0 mg/kg/injection, schedule: Q04DX003 (ip), vehicle: saline with Tween-80
[13] = dose: 100.0 mg/kg/injection, schedule: Q04DX003 (ip), vehicle: Klucel (hydroxypropylcellulose) (HPC)
[14] = dose: 200.0 mg/kg/injection, schedule: Q04DX003 (ip), vehicle: Klucel (hydroxypropylcellulose) (HPC)
[15] = dose: 25.0 mg/kg/injection, schedule: Q01DX009 (ip), vehicle: saline with Tween-80
[16] = dose: 50.0 mg/kg/injection, schedule: Q01DX009 (ip), vehicle: saline with Tween-80
[17] = dose: 2.0 mg/kg/injection, schedule: Q01DX009 (ip), vehicle: saline
[18] = dose: 10.0 mg/kg/injection, schedule: Q01DX009 (ip), vehicle: saline

## CC(=O)N(C)C
dose: 300.0 mg/kg/injection, schedule: Q01DX010 (ip), vehicle: saline
  T/C: 104 % of control
dose: 600.0 mg/kg/injection, schedule: Q01DX010 (ip), vehicle: saline
  T/C: 104 % of control
dose: 1200.0 mg/kg/injection, schedule: Q01DX010 (ip), vehicle: saline
  T/C: 119 % of control
dose: 2400.0 mg/kg/injection, schedule: Q01DX010 (ip), vehicle: saline
  T/C: 119 % of control
dose: 3600.0 mg/kg/injection, schedule: Q01DX010 (ip), vehicle: saline
  T/C: 168 % of control

## Cc1ccc(COC(=O)c2ccccc2)cc1
[1]
  T/C: 104 % of control
[2]
  T/C: 95 % of control
[3]
  T/C: 104 % of control

## OCCCN1CCC2(CC1)SSC1(CCN(CCCO)CC1)S2
dose: 50.0 mg/kg/injection, schedule: Q04DX003 (ip), vehicle: saline
  T/C: 95 % of control
[4]
  T/C: 100 % of control and 109 % of control
[5]
  T/C: 100 % of control and 104 % of control

## NC(N)=NC(N)=Nc1ccc([As](=O)(O)O)c(O)c1
dose: 44.0 mg/kg/injection, schedule: Q01DX009 (ip), vehicle: Klucel (hydroxypropylcellulose) (HPC)
  T/C: 156 % of control
dose: 66.0 mg/kg/injection, schedule: Q01DX009 (ip), vehicle: Klucel (hydroxypropylcellulose) (HPC)
  T/C: 156 % of control
[6]
  T/C: 169 % of control
[7]
  T/C: 169 % of control
dose: 150.0 mg/kg/injection, schedule: Q01DX009 (ip), vehicle: saline
  T/C: 155 % of control

## Cc1ccc2ccccc2n1
[4]
  T/C: 87 % of control
[5]
  T/C: 91 % of control

## O=C(NC(Cc1nn[nH]n1)C(=O)OCc1ccccc1)OCc1ccccc1 (stereo not drawn)
[8]
  T/C: 100 % of control
[9]
  T/C: 111 % of control
[10]
  T/C: 96 % of control
[11]
  T/C: 94 % of control
[12]
  T/C: 87 % of control

## Cc1ccc(S(=O)(=O)OCC(CO)(COS(=O)(=O)c2ccc(C)cc2)[N+](=O)[O-])cc1
[6]
  T/C: 100 % of control
[13]
  T/C: 113 % of control
dose: 200.0 mg/kg/injection, schedule: Q01DX009 (ip), vehicle: Klucel (hydroxypropylcellulose) (HPC)
  T/C: 95 % of control
[14]
  T/C: 121 % of control
dose: 400.0 mg/kg/injection, schedule: Q04DX003 (ip), vehicle: Klucel (hydroxypropylcellulose) (HPC)
  T/C: 121 % of control

## C[Si](C)(OC(=O)N(CCCl)CCCl)O[Si](C)(C)OC(=O)N(CCCl)CCCl
dose: 6.25 mg/kg/injection, schedule: Q01DX009 (ip), vehicle: saline with Tween-80
  T/C: 110 % of control
[15]
  T/C: 185 % of control
[16]
  T/C: 208 % of control

## COc1ccccc1N1CCN(CC(O)COc2ccccc2C(C)=O)CC1 (stereo not drawn)
[15]
  T/C: 95 % of control
[16]
  T/C: 91 % of control
[8]
  T/C: 112 % of control

## C[N+](C)(C)Cc1ccccc1C[N+](C)(C)C
dose: 25.0 mg/kg/injection, schedule: Q01DX009 (ip), vehicle: saline
  T/C: 116 % of control
dose: 50.0 mg/kg/injection, schedule: Q01DX009 (ip), vehicle: saline
  T/C: 112 % of control
dose: 100.0 mg/kg/injection, schedule: Q01DX009 (ip), vehicle: saline
  T/C: 112 % of control

## Cc1ccc(C(=O)C(Br)C(Br)c2ccccc2)cc1 (stereo not drawn)
[9]
  T/C: 95 % of control
[11]
  T/C: 94 % of control
[12]
  T/C: 103 % of control

## CCOC(=O)C(Cc1ccc(N(CCCl)CCCl)cc1)NC(=O)C(N)CO (stereo not drawn)
dose: 5.0 mg/kg/injection, schedule: Q04DX003 (ip), vehicle: water
  T/C: 157 % of control
dose: 10.0 mg/kg/injection, schedule: Q04DX003 (ip), vehicle: water
  T/C: 263 % of control
dose: 20.0 mg/kg/injection, schedule: Q04DX003 (ip), vehicle: water
  T/C: 263 % of control
dose: 40.0 mg/kg/injection, schedule: Q04DX003 (ip), vehicle: water
  T/C: 105 % of control

## OC(C1CO1)C(O)C1CO1 (stereo not drawn)
dose: 1.0 mg/kg/injection, schedule: Q01DX009 (ip), vehicle: saline
  T/C: 282 % of control
[17]
  T/C: 168 % of control
dose: 2.5 mg/kg/injection, schedule: Q01DX009 (ip), vehicle: saline
  T/C: 190 % of control
dose: 5.0 mg/kg/injection, schedule: Q01DX009 (ip), vehicle: saline
  T/C: 260 % of control
dose: 6.7 mg/kg/injection, schedule: Q01DX001 (ip), vehicle: saline
  T/C: 189 % of control
dose: 6.7 mg/kg/injection, schedule: Q04DX003 (ip), vehicle: saline
  T/C: 250 % of control
dose: 10.0 mg/kg/injection, schedule: Q01DX001 (ip), vehicle: saline
  T/C: 336 % of control and 209 % of control and 219 % of control
[18]
  T/C: 110 % of control
dose: 10.0 mg/kg/injection, schedule: Q04DX003 (ip), vehicle: saline
  T/C: 413 % of control
dose: 12.5 mg/kg/injection, schedule: Q01DX001 (ip), vehicle: saline
  T/C: 231 % of control and 292 % of control and 333 % of control
dose: 12.5 mg/kg/injection, schedule: Q04DX003 (ip), vehicle: saline
  T/C: 387 % of control
dose: 15.0 mg/kg/injection, schedule: Q01DX001 (ip), vehicle: saline
  T/C: 280 % of control and 292 % of control and 318 % of control

## O=CC(NC(=O)N(CCCl)N=O)C(O)C(O)C(O)CO (stereo not drawn)
dose: 1.3 mg/kg/injection, schedule: Q01DX009 (ip), vehicle: saline
  T/C: 157 % of control
[17]
  T/C: 198 % of control
dose: 3.0 mg/kg/injection, schedule: Q01DX009 (ip), vehicle: saline
  T/C: 230 % of control
dose: 4.5 mg/kg/injection, schedule: Q01DX009 (ip), vehicle: saline
  T/C: 238 % of control
dose: 6.48 mg/kg/injection, schedule: Q04DX003 (ip), vehicle: saline
  T/C: 250 % of control
dose: 6.7 mg/kg/injection, schedule: Q01DX009 (ip), vehicle: saline
  T/C: 238 % of control
dose: 6.8 mg/kg/injection, schedule: Q01DX009 (ip), vehicle: saline
  T/C: 169 % of control
[18]
  T/C: 203 % of control
dose: 10.8 mg/kg/injection, schedule: Q04DX003 (ip), vehicle: saline
  T/C: 514 % of control
dose: 13.0 mg/kg/injection, schedule: Q01DX001 (ip), vehicle: saline
  T/C: 238 % of control and 211 % of control
dose: 18.0 mg/kg/injection, schedule: Q04DX003 (ip), vehicle: saline
  T/C: 262 % of control
dose: 20.0 mg/kg/injection, schedule: Q01DX001 (ip), vehicle: saline
  T/C: 237 % of control and 203 % of control
dose: 30.0 mg/kg/injection, schedule: Q01DX001 (ip), vehicle: saline
  T/C: 253 % of control and 95 % of control
dose: 45.0 mg/kg/injection, schedule: Q01DX001 (ip), vehicle: saline
  T/C: 254 % of control

## C=CCNC(=O)C12CC3CC(CC(C3)C1)C2
[16]
  T/C: 93 % of control
[8]
  T/C: 99 % of control
[10]
  T/C: 103 % of control

## N#CC1CCCCC1C1(C#N)CCCCC1Cc1ccc2ccccc2n1 (stereo not drawn)
dose: 100.0 mg/kg/injection, schedule: Q04DX002 (ip), vehicle: saline with Tween-80
  T/C: 96 % of control
dose: 200.0 mg/kg/injection, schedule: Q04DX002 (ip), vehicle: saline with Tween-80
  T/C: 104 % of control
dose: 400.0 mg/kg/injection, schedule: Q04DX002 (ip), vehicle: saline with Tween-80
  T/C: 107 % of control

## CN1NCc2cncnc21
[16]
  T/C: 90 % of control
[8]
  T/C: 99 % of control
[10]
  T/C: 99 % of control
dose: 400.0 mg/kg/injection, schedule: Q01DX009 (ip), vehicle: saline with Tween-80
  T/C: 90 % of control

## S=C(NNC(=S)Nc1ccc(Cl)cc1)NNc1ccccc1
dose: 25.0 mg/kg/injection, schedule: Q01DX009 (ip), vehicle: other
  T/C: 100 % of control
dose: 50.0 mg/kg/injection, schedule: Q01DX009 (ip), vehicle: other
  T/C: 100 % of control
dose: 50.0 mg/kg/injection, schedule: Q04DX003 (ip), vehicle: Klucel (hydroxypropylcellulose) (HPC)
  T/C: 104 % of control
[1]
  T/C: 100 % of control
dose: 100.0 mg/kg/injection, schedule: Q01DX009 (ip), vehicle: other
  T/C: 115 % of control
[13]
  T/C: 100 % of control
[7]
  T/C: 110 % of control
[2]
  T/C: 90 % of control
[14]
  T/C: 100 % of control
dose: 220.0 mg/kg/injection, schedule: Q01DX009 (ip), vehicle: Klucel (hydroxypropylcellulose) (HPC)
  T/C: 110 % of control
dose: 225.0 mg/kg/injection, schedule: Q01DX009 (ip), vehicle: Klucel (hydroxypropylcellulose) (HPC)
  T/C: 110 % of control
dose: 335.0 mg/kg/injection, schedule: Q01DX009 (ip), vehicle: Klucel (hydroxypropylcellulose) (HPC)
  T/C: 110 % of control
[3]
  T/C: 104 % of control
